Data on 11 molecules can be found in PubChem BioAssay (NCI).

Values joined by “and” are separate entries in the source; they are usually repeats but may differ in a detail not shown here. Equal values may be shown once.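 Five concentrations, 48 hours, 96-well plates. Here, GI50 denotes the concentration required for 50% inhibition of growth. TGI: total growth inhibition.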

Some test systems named below: MDA-MB-231 breast; OVCAR-3 ovarian; PC-3 prostate; SK-MEL-2 melanoma; HL-60(TB) leukemia; MOLT-4 leukemia; BT-549 breast; SN12C renal; RXF 393 renal; ACHN renal.
Experiment in all cases: growth of human tumour cells (NCI), 48 h

Consider `O=C(N/N=C/c1ccc([N+](=O)[O-])o1)c1ccc(O)cc1`, for which the GI50 is 10.8 µM in the assay with MDA-MB-231 breast; 8.33 µM with OVCAR-3 ovarian; 27 µM in the assay on PC-3 prostate; 11.3 µM with SK-MEL-2 melanoma; 2.48 µM in the assay with HL-60(TB) leukemia; 5.69 µM in the assay with MOLT-4 leukemia. The GI50 is 10.7 µM in the assay on BT-549 breast, 4.03 µM in the assay on SN12C renal, 12.9 µM with RXF 393 renal and 5.46 µM in the assay with ACHN renal. Moreover, the TGI in the assay with MDA-MB-231 breast is above 100 µM; with OVCAR-3 ovarian, 36.1 µM; in the assay with PC-3 prostate, above 100 µM; in the assay with SK-MEL-2 melanoma, above 100 µM; in the assay on HL-60(TB) leukemia it was 6.9 µM; with MOLT-4 leukemia, above 100 µM. Besides, the TGI is 28 µM in the assay with BT-549 breast, above 100 µM with SN12C renal, 73.8 µM in the assay with RXF 393 renal and above 100 µM in the assay with ACHN renal.
As to `C[C@H]1CCC/C=C/[C@@H]2C[C@H](O)C[C@H]2[C@H](O)[C@@H](SCC(O)CO)CC(=O)O1` (stereo not given in full), the GI50 with MDA-MB-231 breast is 12.1 µM; in the assay on OVCAR-3 ovarian, 22.3 µM; in the assay with PC-3 prostate, 32.8 µM; with SK-MEL-2 melanoma it was 25.2 µM; with HL-60(TB) leukemia, 29.3 µM; with MOLT-4 leukemia, 27.1 µM. For the same molecule, the GI50 with BT-549 breast is 69.2 µM; with SN12C renal, 34.3 µM; in the assay on RXF 393 renal it was 4.42 µM; in the assay with ACHN renal, 25.7 µM. The TGI with MDA-MB-231 breast was 28.1 µM; in the assay with OVCAR-3 ovarian, 63.3 µM; in the assay on PC-3 prostate, above 100 µM; with SK-MEL-2 melanoma, 66.9 µM; with HL-60(TB) leukemia it was 94.7 µM; in the assay with MOLT-4 leukemia it was 84.3 µM. The TGI in the assay on BT-549 breast is above 100 µM; in the assay with SN12C renal it was above 100 µM; in the assay on RXF 393 renal, 20.1 µM; in the assay with ACHN renal, 92.8 µM.
For the molecule `Cn1c(=O)c2c(ncn2CC(=O)Nc2ccc(-c3ccccc3)nn2)n(C)c1=O`, the GI50 in the assay on MDA-MB-231 breast is 23.1 µM; in the assay with OVCAR-3 ovarian, above 100 µM; with PC-3 prostate, above 100 µM; with SK-MEL-2 melanoma, above 100 µM; in the assay with HL-60(TB) leukemia, 49.9 µM; with MOLT-4 leukemia, above 100 µM. The GI50 in the assay with BT-549 breast was above 100 µM; in the assay on SN12C renal, above 100 µM; in the assay on RXF 393 renal, 48.3 µM; with ACHN renal, above 100 µM. In addition, the TGI in the assay with MDA-MB-231 breast, in the assay on OVCAR-3 ovarian, with PC-3 prostate, in the assay on SK-MEL-2 melanoma, in the assay with HL-60(TB) leukemia and with MOLT-4 leukemia was above 100 µM each time. Also, the TGI with BT-549 breast, in the assay on SN12C renal, in the assay with RXF 393 renal and in the assay with ACHN renal was above 100 µM in each case.
For the molecule `N#Cc1ccc(OC(=O)Nc2ccc(Cl)c(Cl)c2)cc1`, the GI50 with MDA-MB-231 breast was 4.42 µM; with OVCAR-3 ovarian, 3.01 µM; with PC-3 prostate, 2.87 µM; with SK-MEL-2 melanoma, 4.13 µM; in the assay on HL-60(TB) leukemia, 5.7 µM; with MOLT-4 leukemia it was 3.71 µM. The GI50 in the assay with BT-549 breast is 9.93 µM; with SN12C renal it was 3.09 µM; with RXF 393 renal, 7.3 µM; in the assay with ACHN renal, 2.97 µM. Further, the TGI with MDA-MB-231 breast stood at 23.3 µM; with OVCAR-3 ovarian it was 9.1 µM; with PC-3 prostate it was 21.6 µM; with SK-MEL-2 melanoma it was 18 µM; with HL-60(TB) leukemia it was 30.9 µM; with MOLT-4 leukemia, 27.8 µM. Besides, the TGI worked out at 44.2 µM in the assay on BT-549 breast, 25.8 µM with SN12C renal, 42.2 µM in the assay on RXF 393 renal and 14.5 µM with ACHN renal.
As for `CCCCCCCCCCN1CCC(N2CCCCC2)CC1`, the GI50 is 1.3 µM in the assay with MDA-MB-231 breast; 4.64 µM in the assay on OVCAR-3 ovarian; 2 µM in the assay with PC-3 prostate; 2.43 µM in the assay with SK-MEL-2 melanoma; 1.1 µM in the assay on HL-60(TB) leukemia; 2.09 µM in the assay on MOLT-4 leukemia. Besides, the GI50 was 3.62 µM in the assay on BT-549 breast, 4.81 µM in the assay on SN12C renal, 2.01 µM in the assay with RXF 393 renal and 4.31 µM in the assay on ACHN renal. Further, the TGI was determined as 3.26 µM with MDA-MB-231 breast; 16.6 µM with OVCAR-3 ovarian; 13 µM with PC-3 prostate; 6.29 µM in the assay with SK-MEL-2 melanoma; 3.77 µM in the assay on HL-60(TB) leukemia; 6.65 µM in the assay with MOLT-4 leukemia. For the same molecule, the TGI in the assay on BT-549 breast came out at 16.1 µM; in the assay on SN12C renal, 19.3 µM; in the assay with RXF 393 renal, 7.15 µM; in the assay on ACHN renal, 13.7 µM.
`Cc1ccc(S(=O)(=O)NC(=O)NC2=NC(C)(C)N(c3ccc(Cl)c(Cl)c3)C(N)=N2)cc1`: the TGI in the assay on MDA-MB-231 breast, with OVCAR-3 ovarian, in the assay on PC-3 prostate, with SK-MEL-2 melanoma, in the assay on HL-60(TB) leukemia and with MOLT-4 leukemia was above 100 µM each time. The TGI with BT-549 breast, in the assay on SN12C renal, with RXF 393 renal and in the assay on ACHN renal was above 100 µM in each case.
In the case of `Cc1ncc([N+](=O)[O-])n1CCNS(=O)(=O)CCCn1ncnc1[N+](=O)[O-]`, the TGI with MDA-MB-231 breast, with OVCAR-3 ovarian, in the assay on PC-3 prostate, in the assay with SK-MEL-2 melanoma, in the assay on HL-60(TB) leukemia and in the assay with MOLT-4 leukemia was above 100 µM in each case. The TGI with BT-549 breast, with SN12C renal, with RXF 393 renal and in the assay with ACHN renal was above 100 µM throughout.
With `Nc1nc(N)c2cc(CNc3ccc(C(=O)NC(CC(=O)O)C(=O)O)c(Cl)c3)ccc2n1` (stereo not given), the TGI in the assay with MDA-MB-231 breast was above 500 µM; in the assay with OVCAR-3 ovarian, above 500 µM; with PC-3 prostate it was above 500 µM; in the assay with SK-MEL-2 melanoma it was above 500 µM; in the assay on HL-60(TB) leukemia, above 500 µM; with MOLT-4 leukemia, > 31.6 µM and 316 µM. Also, the TGI with BT-549 breast, in the assay on SN12C renal, in the assay on RXF 393 renal and in the assay with ACHN renal was above 500 µM throughout. Also, the GI50 in the assay on OVCAR-3 ovarian is 177 µM; in the assay on PC-3 prostate it was below 0.01 µM; with SK-MEL-2 melanoma it was above 500 µM; in the assay with MOLT-4 leukemia it was 0.05 µM; in the assay on BT-549 breast it was above 500 µM; in the assay with SN12C renal, 0.05 µM. Further, the GI50 in the assay with RXF 393 renal is above 500 µM; with ACHN renal it was 0.05 µM.
As to `O=C(Nc1ccc(Cl)c(Cl)c1)Nc1ccccc1O`, the GI50 in the assay with MDA-MB-231 breast was 10 µM; in the assay with OVCAR-3 ovarian it was 3.24 µM; in the assay with PC-3 prostate, 3.09 µM; with SK-MEL-2 melanoma it was 5.51 µM; in the assay on HL-60(TB) leukemia it was 3.7 µM; with MOLT-4 leukemia, 3.15 µM. Further, the GI50 was 24.9 µM with BT-549 breast, 8.4 µM in the assay on SN12C renal, 15 µM in the assay with RXF 393 renal and 3.9 µM in the assay with ACHN renal. For the same molecule, the TGI in the assay with MDA-MB-231 breast came to 34.2 µM; with OVCAR-3 ovarian, 13.5 µM; with PC-3 prostate, 27.9 µM; in the assay on SK-MEL-2 melanoma, 17 µM; in the assay with HL-60(TB) leukemia, 36.2 µM; with MOLT-4 leukemia, 49.1 µM. The TGI in the assay with BT-549 breast is 91.3 µM; in the assay with SN12C renal it was 25.1 µM; in the assay with RXF 393 renal it was 35.6 µM; in the assay with ACHN renal, 51.5 µM.
Regarding `CCCCCc1ccc(S(=O)(=O)Nc2cc(-c3csc(NC(C)=O)n3)ccc2N2CCN(C)CC2)cc1`, the GI50 was 4.75 µM in the assay on MDA-MB-231 breast; 4.92 µM in the assay with OVCAR-3 ovarian; 2.23 µM in the assay with PC-3 prostate; 5.76 µM with SK-MEL-2 melanoma; 1.37 µM with HL-60(TB) leukemia; 2.43 µM in the assay with MOLT-4 leukemia. The GI50 was 4.98 µM in the assay with BT-549 breast, 4.7 µM with SN12C renal, 3.66 µM in the assay on RXF 393 renal and 4.87 µM with ACHN renal. Also, the TGI stood at 9.91 µM in the assay on MDA-MB-231 breast; 9.64 µM in the assay on OVCAR-3 ovarian; 7.72 µM in the assay on PC-3 prostate; 12.6 µM in the assay with SK-MEL-2 melanoma; 6.09 µM in the assay with HL-60(TB) leukemia; 8.33 µM in the assay with MOLT-4 leukemia. In addition, the TGI worked out at 10.1 µM with BT-549 breast, 9.25 µM in the assay on SN12C renal, 8 µM with RXF 393 renal and 9.24 µM with ACHN renal.
`O=c1[nH]c(=O)n([C@H]2CCCO2)cc1F`: the TGI in the assay on MDA-MB-231 breast, in the assay on OVCAR-3 ovarian, in the assay on PC-3 prostate, with SK-MEL-2 melanoma, in the assay on HL-60(TB) leukemia and in the assay on MOLT-4 leukemia was above 5000 µM in each case. Moreover, the TGI with BT-549 breast, in the assay on SN12C renal, with RXF 393 renal and with ACHN renal was above 5000 µM throughout. Also, the GI50 in the assay with OVCAR-3 ovarian was 1650 µM; in the assay on SK-MEL-2 melanoma it was 1950 µM; with HL-60(TB) leukemia it was 1030 µM; in the assay with MOLT-4 leukemia, above 3500 µM; in the assay on SN12C renal, 1910 µM; in the assay with RXF 393 renal it was 1060 µM. Also, the GI50 in the assay on ACHN renal was 2600 µM.
